Consider 39 compounds from patent US20110230428A1, “CERTAIN KYNURENINE-3-MONOOXYGENASE INHIBITORS, PHARMACEUTICAL COMPOSITIONS, AND METHODS OF USE THEREOF” (priority 2008, published 2011).

T1 sequence (Q91WN4 whole entry): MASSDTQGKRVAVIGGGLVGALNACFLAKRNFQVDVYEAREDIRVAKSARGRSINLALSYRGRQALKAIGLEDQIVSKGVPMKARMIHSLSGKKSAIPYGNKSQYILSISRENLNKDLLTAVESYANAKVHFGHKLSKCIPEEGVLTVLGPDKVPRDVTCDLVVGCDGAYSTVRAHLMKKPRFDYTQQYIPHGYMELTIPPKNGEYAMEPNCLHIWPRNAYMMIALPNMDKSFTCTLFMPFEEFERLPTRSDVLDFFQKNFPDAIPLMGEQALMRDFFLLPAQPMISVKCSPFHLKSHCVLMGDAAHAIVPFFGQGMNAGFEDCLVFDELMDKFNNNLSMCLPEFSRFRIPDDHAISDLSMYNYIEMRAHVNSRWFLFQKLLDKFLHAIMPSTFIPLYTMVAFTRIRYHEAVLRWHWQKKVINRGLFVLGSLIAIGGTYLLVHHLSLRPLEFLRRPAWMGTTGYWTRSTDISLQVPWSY

The experiment has as its target T1, KMO mouse enzyme (Mus musculus, UniProt Q91WN4).
T1 construct: KMO enzyme prepared at Evotec from mouse liver (4-6 weeks old) via mitochondria isolation; from tissue; host or cells: mouse liver (4-6 weeks old), isolated mitochondria
Briefly: KMO mouse enzyme assay: L-Kynurenine hydroxylation to 3OH-KYN by LC/MS. It counts as biochemical. Conditions: compound at 10 μM; KMO from mouse liver mitochondria; read-out: INH.Mouse @ 10 μM. As to the method:
A method of monitoring L-Kynurenine (KYN) hydroxylation to form 3-Hydroxy-Kynurenine (3OH-KYN) by LC/MS is described. Product is quantified by multiple reaction monitoring (MRM method).
• Compound: Stock concentrations: 10 mM in 100% DMSO • Enzyme: KMO enzyme prepared at Evotec from mouse liver (4-6 weeks old) via mitochondria isolation as described in the literature • Substrate: L-Kynurenine (Sigma: Cat# K3750, stock concentration: 10 mM in 100 mM potassium phosphate buffer, pH 7.4)
• Buffer: 100 mM potassium phosphate, pH 7.4, 200 μM NADPH, 0.4 U/ml G6P-DH (Glucose 6-phosphate Dehydrogenase), 3 mM G6P (D-Glucose 6-phosphate) • Assay Volume: 40 μl • Plate Format: 384 well plate, transparent (Matrix) • Read-Out: product (3OH-KYN) quantification using product specific MRM • Reader: LC/MS/MS
• prepare serial dilution (factor 3) of compound in 100% DMSO (top concentration=10 mM, 100% DMSO) • [8 points: 10 mM; 3.33 mM; 1.11 mM; 0.37 mM; 0.12 mM; 0.04 mM; 0.0137 mM; 0.0045 mM, 0.0015 mM] • prepare […] solution of each compound concentration (top concentration 300 μM, 3% DMSO) in assay buffer • [concentrations: 300 μM; 100 μM; 33.3 μM; 11.1 μM; 3.70 μM; 1.23 μM; 0.41 μM; 0.137 μM] • prepare substrate (10 mM) at concentration of 1 mM in assay buffer • assay mix: 4 μl compound/well of each concentration+24 μl assaybuffer/well+8 μl KMO mouse enzyme+4 μl 1 mM substrate (final concentration=100 μM) • [final compound top concentration: 30 μM; 0.3% DMSO] • [final compound bottom concentration: 0.0137 μM; 0.3% DMSO] • positive control: 4 μl 50 μM FCE28833 in assay buffer, 0.5% DMSO [final assay concentration=5 μM]+24 μl assaybuffer/well+8 μl KMO mouse enzyme+4 μl 1 mM substrate [final concentration=100 μM] • negative control: 28 μl assay buffer/well+8 μl KMO mouse enzyme+4 μl 1 mM substrate [final concentration=100 μM] • incubate 40 min at RT • add 40 μl/well 10% trichloro acetic acid in water to stop the assay and precipitate protein • centrifuge plate for 3 min at 4000 rpm • product detection by LC/MS (injection of 20 μl/well, 2 fold overfill of the 10 μl sample loop) Data analysis: IC50's are calculated using automated fitting algorithm (A+Analysis).
Using procedures similar to those described herein, the following compounds were assayed for activity.
With `CON=C(CCC(=O)Nc1ccc(C)nc1)c1ccc(Cl)c(Cl)c1` [4-(3,4-Dichloro-phenyl)-4-methoxyimino-N-(6-methyl-pyridin-3-yl)-butyramide], the inhibition at 10 µM was 82.9%.

In the case of `CON=C(CCC(=O)Nc1nncs1)c1ccc(Cl)c(Cl)c1` [4-(3,4-Dichloro-phenyl)-4-methoxyimino-N-[1,3,4]thiadiazol-2-yl-butyramide], the inhibition at 10 µM stood at 95.2%. Turning to `CON=C(CCC(=O)N(C)c1cccnc1)c1ccc(Cl)c(Cl)c1` [4-(3,4-Dichloro-phenyl)-4-methoxyimino-N-methyl-N-pyridin-3-yl-butyramide], the inhibition at 10 µM was determined as 62.5%. For the compound `CNC(=O)CC/C(=N\OC)c1ccc(Cl)c(Cl)c1` [4-(3,4-Dichloro-phenyl)-4-methoxyimino-N-methyl-butyramide], the inhibition at 10 µM is 93.7%. The figure for `CON=C(CCC(=O)Nc1ccccc1)c1ccc(Cl)c(Cl)c1` [4-(3,4-Dichloro-phenyl)-4-methoxyimino-N-phenyl-butyramide] is 103%; for `CON=C(CCC(=O)Nc1cnccn1)c1ccc(Cl)c(Cl)c1` [4-(3,4-Dichloro-phenyl)-4-methoxyimino-N-pyrazin-2-yl-butyramide] it is 98%. Regarding `CON=C(CCC(=O)Nc1cccnn1)c1ccc(Cl)c(Cl)c1` [4-(3,4-Dichloro-phenyl)-4-methoxyimino-N-pyridazin-3-yl-butyramide], the inhibition at 10 µM turned out to be 101%. With `CO/N=C(\CCC(=O)Nc1ccccn1)c1ccc(Cl)c(Cl)c1` [4-(3,4-Dichloro-phenyl)-4-methoxyimino-N-pyridin-2-yl-butyramide] the figure was 104%; with `CON=C(CCC(=O)Nc1cccnc1)c1ccc(Cl)c(Cl)c1` [4-(3,4-Dichloro-phenyl)-4-methoxyimino-N-pyridin-3-yl-butyramide], 103%.

Take `CON=C(CCC(=O)NCc1cccnc1)c1ccc(Cl)c(Cl)c1` [4-(3,4-Dichloro-phenyl)-4-methoxyimino-N-pyridin-3-ylmethyl-butyramide]: the inhibition at 10 µM came out at 77.1%. With `CON=C(CCC(=O)Nc1ccncc1)c1ccc(Cl)c(Cl)c1` [4-(3,4-Dichloro-phenyl)-4-methoxyimino-N-pyridin-4-yl-butyramide] the figure was 76.5%; with `CON=C(CCC(=O)Nc1ncccn1)c1ccc(Cl)c(Cl)c1` [4-(3,4-Dichloro-phenyl)-4-methoxyimino-N-pyrimidin-2-yl-butyramide], 101%.

On to `CON=C(CCC(=O)Nc1cncnc1)c1ccc(Cl)c(Cl)c1` [4-(3,4-Dichloro-phenyl)-4-methoxyimino-N-pyrimidin-5-yl-butyramide], for which the inhibition at 10 µM turned out to be 98.5%. On to `CON=C(CCC(=O)NC1CCNC1)c1ccc(Cl)c(Cl)c1` (stereo not drawn) [4-(3,4-Dichloro-phenyl)-4-methoxyimino-N-pyrrolidin-3-yl-butyramide], for which the inhibition at 10 µM is 74.3%. The figure for `CON=C(CCC(N)=O)c1ccc(Cl)c(Cl)c1` [4-(3,4-Dichloro-phenyl)-4-methoxyimino-butyramide] is 94.9%; for `CON=C(CCC(=O)OC[C@H](O)[C@H]1OC(=O)C(O)=C1O)c1ccc(Cl)c(Cl)c1` [4-(3,4-Dichloro-phenyl)-4-methoxyimino-butyric acid (S)-2-((R)-3,4-dihydroxy-5-oxo-2,5-dihydro-furan-2-yl)-2-hydroxy-ethyl ester] it is 102%; for `CO/N=C(\CCC(=O)OC1CCC1)c1ccc(Cl)c(Cl)c1` [4-(3,4-Dichloro-phenyl)-4-methoxyimino-butyric acid cyclobutyl ester] it is 102%. For the compound `CO/N=C(\CCC(=O)OC1CCCC1)c1ccc(Cl)c(Cl)c1` [4-(3,4-Dichloro-phenyl)-4-methoxyimino-butyric acid cyclopentyl ester], the inhibition at 10 µM was found to be 102%.

As for `CO/N=C(\CCC(=O)OC(C)C)c1ccc(Cl)c(Cl)c1` [4-(3,4-Dichloro-phenyl)-4-methoxyimino-butyric acid isopropyl ester], the inhibition at 10 µM is 102%. The figure for `CO/N=C(\CCC(=O)OC)c1ccc(Cl)c(Cl)c1` [4-(3,4-Dichloro-phenyl)-4-methoxyimino-butyric acid methyl ester] is 106%. With `CO/N=C(\CCC(=O)Oc1cccnc1)c1ccc(Cl)c(Cl)c1` [4-(3,4-Dichloro-phenyl)-4-methoxyimino-butyric acid pyridin-3-yl ester] the figure was 105%; with `CO/N=C(\CCC(=O)OC1CCOCC1)c1ccc(Cl)c(Cl)c1` [4-(3,4-Dichloro-phenyl)-4-methoxyimino-butyric acid tetrahydro-pyran-4-yl ester], 102%; with `CO/N=C(\CCC(=O)O)c1ccc(Cl)c(Cl)c1` [4-(3,4-Dichloro-phenyl)-4-methoxyimino-butyric acid], 106%. The figure for `CON=C(CCC#N)c1ccc(Cl)c(Cl)c1` [4-(3,4-Dichloro-phenyl)-4-methoxyimino-butyronitrile] is 74.6%. On to `CON=C(CCC(=O)NCC(O)CO)c1ccc(Cl)c(Cl)c1` (stereo not drawn) [4-(3,4-Dichloro-phenyl)-N-(2,3-dihydroxy-propyl)-4-methoxyimino-butyramide], for which the inhibition at 10 µM was found to be 75.7%. As for `CON=C(CCC(=O)Nc1c(C)ccnc1C)c1ccc(Cl)c(Cl)c1` [4-(3,4-Dichloro-phenyl)-N-(2,4-dimethyl-pyridin-3-yl)-4-methoxyimino-butyramide], the inhibition at 10 µM came out at 85%.

For the compound `CON=C(CCC(=O)Nc1ccc(C)nc1C)c1ccc(Cl)c(Cl)c1` [4-(3,4-Dichloro-phenyl)-N-(2,6-dimethyl-pyridin-3-yl)-4-methoxyimino-butyramide], the inhibition at 10 µM came to 93%.

As for `CON=C(CCC(=O)NCCO)c1ccc(Cl)c(Cl)c1` [4-(3,4-Dichloro-phenyl)-N-(2-hydroxy-ethyl)-4-methoxyimino-butyramide], the inhibition at 10 µM worked out at 95.7%. The figure for `CON=C(CCC(=O)NCC(C)O)c1ccc(Cl)c(Cl)c1` (stereo not drawn) [4-(3,4-Dichloro-phenyl)-N-(2-hydroxy-propyl)-4-methoxyimino-butyramide] is 98.8%; for `CON=C(CCC(=O)Nc1ncc(C)nc1C)c1ccc(Cl)c(Cl)c1` [4-(3,4-Dichloro-phenyl)-N-(3,5-dimethyl-pyrazin-2-yl)-4-methoxyimino-butyramide] it is 101%; for `CON=C(CCC(=O)Nc1cncc(F)c1)c1ccc(Cl)c(Cl)c1` [4-(3,4-Dichloro-phenyl)-N-(5-fluoro-pyridin-3-yl)-4-methoxyimino-butyramide] it is 90.3%.

Turning to `CON=C(CCC(=O)Nc1ccc(F)nc1)c1ccc(Cl)c(Cl)c1` [4-(3,4-Dichloro-phenyl)-N-(6-fluoro-pyridin-3-yl)-4-methoxyimino-butyramide], the inhibition at 10 µM was found to be 91.7%.

For the compound `CCNC(=O)CC/C(=N\OC)c1ccc(Cl)c(Cl)c1` [4-(3,4-Dichloro-phenyl)-N-ethyl-4-methoxyimino-butyramide], the inhibition at 10 µM is 98.9%.

Turning to `CO/N=C(\CCC(=O)NC(C)C)c1ccc(Cl)c(Cl)c1` [4-(3,4-Dichloro-phenyl)-N-isopropyl-4-methoxyimino-butyramide], the inhibition at 10 µM was determined as 94.3%. With `CO/N=C(\CCC(=O)Nc1ccon1)c1ccc(Cl)c(Cl)c1` [4-(3,4-Dichloro-phenyl)-N-isoxazol-3-yl-4-methoxyimino-butyramide] the figure was 101%; with `CON=C(CCC(=O)N(C)OC)c1ccc(Cl)c(Cl)c1` [4-(3,4-Dichloro-phenyl)-N-methoxy-4-methoxyimino-N-methyl-butyramide], 102%. The figure for `CO/N=C(\CCC(=O)O)c1cc(Cl)cc(Cl)c1` [4-(3,5-Dichloro-phenyl)-4-methoxyimino-butyric acid] is 98.7%; for `CON=C(CCC(=O)O)c1cccc(Cl)c1` [4-(3-Chloro-phenyl)-4-methoxyimino-butyric acid] it is 101%. With `COC(=O)CC/C(=N\OCc1ccccc1)c1ccc(Cl)c(Cl)c1` [4-Benzyloxyimino-4-(3,4-dichloro-phenyl)-butyric acid methyl ester] the figure was 66%.
